Source: patent US20220233641A1, “Methods and Compositions for Treating Obesity and/or Skin Disorders” (THE TRUSTEES OF THE UNIVERSITY OF PENNSYLVANIA, priority 2019, published 2022)
“Also recorded” adds a separate entry of the source.

Assays:
HFD-fed TSLP-R KO mice = assay: Topical MC903 in HFD-fed TSLP-R KO mice; type: in vivo, mouse; conditions: HFD-fed TSLP-R-deficient mice, topical MC903 2 nmol/ear, 12 weeks
Description: TSLP-R KO mice were fed a normal chow (NC) or 40% high fat diet (HFD) for 12 weeks. The mice were topically treated with either vehicle (EtOH) or MC903 (2 nmol/ear) on both ears Monday, Wednesday, and Friday on odd weeks. Mice were weighed on the indicated time points and plotted as mean±SEM. Glucose tolerance test was performed on Week 12 by injection of glucose and subsequent measurements of blood glucose levels. AUC analysis is performed on the GTT curves. * indicates statistical significance of p<0.05 by Student t-test.
TSLP-R knock out (KO) mice were fed a normal chow (NC) or 40% high fat diet (HFD) for 12 weeks. The mice were topically treated with either vehicle (EtOH) or MC903 (2 nmol/ear) on both ears Monday, Wednesday, and Friday on odd weeks. Mice were weighed on the indicated time points and plotted as mean±SEM. Glucose tolerance test (GTT) was performed on Week 12 by injection of glucose and subsequent measurements of blood glucose levels. AUC analysis is performed on the GTT curves. * indicates statistical significance of p<0.05 by Student t-test.

human individual = assay: Topical MC903 application to arm or leg of human individuals (remote effects on sebum, dry skin, scalp hair, dry eye); type: in vivo
Description: MC903 was applied topically to the right arm of an individual daily. Sebum measurements were obtained by cleaning the forehead with ethanol wipe, resting for 15 minutes, and placing sebutape on the forehead for 2 minutes. Black dots on the blue and white background of the tape indicates the presence of sebum at each day post treatment.
MC903 was applied topically to the right arm of an individual daily. Photographs of the right hand before and after 3 or 5 days post treatment is shown. The individual was treated for 14 days total with no need of hand cream at least 9 weeks even after treatment was discontinued. In certain embodiments, secretion of sebum lasts after cessation of treatment.
MC903 was applied topically to the left arm daily of an individual for 14 days (1st treatment). Treatment was stopped for 4 weeks and restarted for an additional 2 weeks (2nd treatment) on the right arm daily. Photographs of the scalp before, 2 weeks after 1st treatment, 11 days after 2nd treatment, and 8 weeks after 2nd treatment are shown.[…].
MC903 was applied topically to the left arm daily of an individual and the right leg another individual for 14 days (1st treatment). The presence of dry eye symptoms was subjectively evaluated in the two individuals before and after treatment. The response is plotted in a bar graph.

HFD-fed mice = assay: Topical MC903 in HFD-fed WT C57BL/6 mice (weight gain, eWAT, GTT, HOMA-IR, liver histology); type: in vivo, mouse
Description: WT C57BL/6 mice were fed a normal chow (NC) or 40% high fat diet (HFD) for 12 weeks. The mice were topically treated with either vehicle (EtOH) or MC903 (2 nmol/ear) on both ears Monday, Wednesday, and Friday on odd weeks. (FIG. 1A) Mice were weighed weekly and % change from baseline is plotted as mean±SEM. (FIG. 1B) The mice were euthanized on Week 12 and the epididymal fat pads were weighed. (FIG. 1C, FIG. 1D) Glucose tolerance test was performed on Week 12 by injection of glucose and subsequent measurements of blood glucose levels. HOMA-IR analysis was performed after an overnight fast at Week 12. *, **, and *** indicate statistical significance of p<0.05, p<0.01, and p<0.001, respectively by Student t-test or ANOVA.
WT C57BL/6 mice were fed a normal chow (NC) or 40% high fat diet (HFD) for 12 weeks. The mice were topically treated with either vehicle (EtOH) or MC903 (2 nmol/ear) on both ears Monday, Wednesday, and Friday on odd weeks. Shown are representative histological images of the liver on Week 12.
Wildtype C57BL/6 mice were fed a normal chow (NC) or 40% high fat diet (HFD) for 12 weeks. The mice were topically treated with either vehicle (EtOH) or MC903 (2 nmol/ear) on both ears Monday, Wednesday, and Friday on odd weeks. (A) Mice were weighed weekly and % change from baseline is plotted as mean±SEM. (B) The mice were euthanized on Week 12 and the epididymal fat pads were weighed. (C, D) Glucose tolerance test (GTT) was performed on Week 12 by injection of glucose and subsequent measurements of blood glucose levels. Homeostatic model assessment-insulin resistance (HOMA-IR) analysis was performed after an overnight fast at Week 12. *, **, and *** indicate statistical significance of p<0.05, p<0.01, and p<0.001, respectively by Student t-test or ANOVA.
C57BL/6 mice were fed a normal chow (NC) or 40% high fat diet (HFD) for 12 weeks. The mice were topically treated with either vehicle (EtOH) or MC903 (2 nmol/ear) on both ears Monday, Wednesday, and Friday on odd weeks. Shown are representative histological images of the liver on Week 12.

[1] = HFD-fed mice, Week 12, vs vehicle

For C=C1/C(=C\C=C2/CCC[C@]3(C)[C@@H]([C@H](C)/C=C/[C@@H](O)C4CC4)CC[C@@H]23)C[C@@H](O)C[C@@H]1O [MC903, 26,27-cyclo-22-ene-1α,24S-dihydroxyvitamin D3], the “weight gain and metabolic parameters” value (HFD-fed TSLP-R KO mice) was “does not prevent weight gain or improve metabolic parameters”, the “time with no need of hand cream after treatment was discontinued” value (human individual; human individual treated for 14 days total) was “at least 9 weeks” and the scalp hair growth (human individual; human individual, 2 cycles of 2-week topical MC903 on the arm) was “substantial recovery of hair growth; also recorded: remotely promotes scalp hair growth”. The “sebum on the forehead (sebutape)” value (human individual; one human individual, MC903 topically on the arm daily) was “increasing amounts of sebum on the forehead; also recorded: remotely increases sebum secretion”, the “eczematous dry skin of a hand” value (human individual; one human individual, MC903 topically on the right arm daily) was “marked improvement; also recorded: remotely cures dry skin of the hand” and the “dry eye symptoms (subjective)” value (human individual; two human individuals, MC903 on arm or leg daily for 14 days) was “improvement in dry eye symptoms; also recorded: remotely improves dry eye symptoms”. The weight gain (HFD-fed mice; HFD-fed WT C57BL/6 mice, topical MC903 2 nmol/ear, 12 weeks, vs vehicle (EtOH)) was “significantly reduced weight gain; also recorded: significantly less weight gain; also recorded: prevention weight gain”, the “epididymal white adipose tissue (eWAT) weight” value (HFD-fed mice; [1]) was “significantly decreased” and the “fat deposition in the liver (histology)” value (HFD-fed mice; [1]) was “markedly reduced; also recorded: appeared very similar to the tissue of mice fed with normal chow; also recorded: prevention of HFD-induced hepatosteatosis”. For the same molecule, the “metabolic parameters (GTT and HOMA-IR)” value (HFD-fed mice; [1]) was “improved metabolic parameters; also recorded: improvement in metabolic parameters”.
